Assay results taken from patent publication US20230128137A1, “BENZO FIVE-MEMBERED CYCLIC COMPOUND” (MEDSHINE DISCOVERY INC., priority 2020, published 2023).

Tests used:
RS4;11 cells = assay: CTG (CellTiter-Glo) test of inhibition of RS4;11 cell proliferation; type: cell-based; details: Homo sapiens, 72 hours incubation
Experimental: 2.1 Experimental objectives: To obtain the IC50 value of the test compound in RS4;11 cell lines;
2.2 incubation time: 72 hours;
2.3 experimental method: CTG (Cell Titer-Glo™ Luminescent Cell Viability Assay);
a. when the cells were fused to 80%, the cells were collected and counted;
b. RS4; 11 cell suspension was diluted to 5000 cells/well and 20 uls of cell suspension was seeded in each well of 384-well plate;
c. the cell plates were placed back to 37° C. and incubated in a 5% carbon dioxide incubator for 24 hours;
d. the test compound was prepared into DMSO solution, and 5 μL of each was added to the designated well of the test plate, and the final concentration of DMSO solution was 0.5%;
e. initiation cell viability was detected by CTG;
f. the test plate was put back into the incubator and incubated for another 72 hours;
g. after 72 hours incubation, CellTiter-Glo™ luminescent cell viability assay was completed according to the manufacturer's manual;

Bcl-xL = target: T1, Bcl-xL (Homo sapiens, UniProt Q07817); assay: HTRF competition test, Bcl-xL with FAM-Bad peptide (enzymology experiment); type: binding; details: 3 nM Bcl-xL and 40 nM FAM-Bad, read-out: IC50 (nM) for inhibition of Bcl-xL enzyme
T1 construct: Human recombinant Bcl-xL (amino acid 1-209); purchased Reaction Biology Corporation (RBC) APT-11-442; host or cells: E. coli
Experimental: (§1) This experiment was based on the competition between fluorescently-labeled Bak/Bad/Noxa peptides and GST-labeled Bcl family proteins. The fluorescence detection method based on HTRF was to observe the binding degree by using the fluorescence ratio between Tb-labeled anti-GST and FAM-labeled peptides. This peptide binds to the surface of the Bcl family protein pocket, which is essential for its anti-apoptotic function.
(§2) 1.1 Experimental reagents: analysis buffer: 20 mM potassium phosphate, pH 7.5, 50 mM sodium chloride, 1 mM EDTA, 0.005% Tritonx-100 and 1% DMSO.
(§3) 1.2 Probe: 5,6-FAM-peptide
(§4) 1.4 Experimental Conditions:
3 nM Bcl-xL and 40 nM FAM-Bad
(§5) a) The Bcl enzyme reaction solution was prepared in the newly prepared analysis buffer;
(§6) b) the Bcl enzyme reaction solution was provided;
(§7) c) the compound was first prepared into a 100% dimethyl sulfoxide solution, and then the compound solution was mixed with the Bcl enzyme reaction solution using (Echo550; nanoliter range) technology, and co-incubated for 10 minutes;
(§8) d) the FAM peptide solution was added.
(§9) e) the mixed solution was gently stirred in dark and room temperature, and co-cultured for 10 minutes.
(§10) f) Anti-GST solution was added.
(§11) g) The mixed solution was gently stirred in dark and room temperature, and co-cultured for 1 hour.
(§12) h) The HTRF high-frequency fluorescence ratio was tested, and the IC50 values were calculated.

Bcl-2 = target: T2, Bcl-2 (Homo sapiens, UniProt P10415); assay: HTRF competition test, Bcl-2 with FAM-BAK peptide (enzymology experiment); type: binding; details: 4 nM Bcl-2 and 100 nM FAM-BAK, read-out: IC50 (nM) for inhibition of Bcl-2 enzyme
T2 construct: Human recombinant Bcl-2 (amino acid 1-207); purchased Reaction Biology Corporation (RBC) APT-11-441; host or cells: E. coli
Experimental: as §1, §2, §3, §4
4 nM Bcl-2 and 100 nM FAM-BAK
as §5, §6, §7, §8, §9, §10, §11, §12

[1] = Liver microsome metabolic stability in vitro, CD-1 mouse; type: in vitro ADME; details: CD-1 mouse liver microsomes; for Remaining (T = 60 min): 60 min incubation
Experimental: (§13) 3.2 preparation of nicotinamide adenine dinucleotide phosphate cofactor solution: an appropriate amount of NADPH powder was weighed and diluted into 10 mM magnesium chloride solution (working solution concentration: 10 unit/mL; final concentration of reaction system: 1 unit/mL);
(§14) 3.3 preparation of liver microsomes: an appropriate concentration working solution of liver microsomes (human, SD rat, CD-1 mouse, beagle dog) was prepared in 100 mM potassium phosphate buffer;
(§15) 3.4 preparation of quenching solution: cold (4° C.) acetonitrile containing 200 ng/mL tolbutamide and 200 ng/mL labetalol as internal standard (IS) was used as quenching solution;
(§16) 3.5 experimental operation:
(§17) a. empty “incubation” plates T60 and NCF60 were preheated for 10 minutes;
(§18) b. the liver microsomes were diluted to 0.56 mg/mL with 100 mM phosphate buffer;
(§19) c. 445 μL of microsomal working solution (0.56 mg/mL) was transferred to the preheated “incubation” plates T60 and NCF60, and then the“incubation” plates T60 and NCF60 were preincubated for 10 min with continuous shaking at 37° C. 54 μL of liver microsomes were transferred to a blank plate, and 6 μL of NAPDH cofactor was added to the blank plate, and then 180 μL of quenching solution was added thereto;
(§20) e. for NCF60 plate, 50 μL of buffer was added thereto and the mixture was fully mixed for three times. Timing was started; the plate was shaken at 37° C. for 60 minutes;
(§21) f. in “quenching” plate TO, 180 μL of quenching solution and 6 μL of NAPDH cofactor were addded to make sure that the plate was cooled down to prevent evaporation;
(§22) g. for T60 plates, the mixture was fully mixed for three times, and 54 μL of mixture was immediately transferred to the “quenching” plate at the 0 min time point. 44 μL of NAPDH cofactor was then added to the culture plate (T60). Timing was started; the plate was shaken at 37° C. for 60 minutes;
(§23) h. at 5, 10, 20, 30 and 60 min, 180 μL of quenching solution was added to the “quenching” plate, and the mixture was mixed for one time, and 60 μL of sample was continuously transferred from the T60 plate to the “quenching” plate at each time point;
(§24) i. for NCF60: the mixture was mixed for one time, and 60 μL of sample was transferred from the NCF60 culture dish to the “quenching” plate containing quenching solution at 60 minutes time point;
(§25) j. all sampling plates were shaked for 10 minutes, then centrifuged at 4000 rpm for 20 minutes at 4° C.;
(§26) k. 60 μL of supernatant was transferred into 180 μL of HPLC water and stirred with a plate shaker for 10 min;
(§27) 1. before LC-MS/MS analysis, each bioanalysis plate was sealed and shaked for 10 minutes.

[2] = Liver microsome metabolic stability in vitro, human; type: in vitro ADME; details: human liver microsomes; for Remaining (T = 60 min): 60 min incubation
Experimental: as §13, §14, §15, §16, §17, §18, §19, §20, §21, §22, §23, §24, §25, §26, §27

[3] = Liver microsome metabolic stability in vitro, beagle dog; type: in vitro ADME; details: beagle dog liver microsomes; for Remaining (T = 60 min): 60 min incubation
Experimental: as §13, §14, §15, §16, §17, §18, §19, §20, §21, §22, §23, §24, §25, §26, §27

[4] = Liver microsome metabolic stability in vitro, SD rat; type: in vitro ADME; details: SD rat liver microsomes; for Remaining (T = 60 min): 60 min incubation
Experimental: as §13, §14, §15, §16, §17, §18, §19, §20, §21, §22, §23, §24, §25, §26, §27

T1 sequence (Q07817 1-209): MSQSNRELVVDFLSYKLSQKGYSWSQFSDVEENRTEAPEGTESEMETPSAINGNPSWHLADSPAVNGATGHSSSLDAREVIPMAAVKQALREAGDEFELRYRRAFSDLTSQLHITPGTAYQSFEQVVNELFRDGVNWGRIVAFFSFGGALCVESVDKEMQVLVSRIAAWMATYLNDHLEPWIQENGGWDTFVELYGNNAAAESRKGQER
T2 sequence (P10415 1-207): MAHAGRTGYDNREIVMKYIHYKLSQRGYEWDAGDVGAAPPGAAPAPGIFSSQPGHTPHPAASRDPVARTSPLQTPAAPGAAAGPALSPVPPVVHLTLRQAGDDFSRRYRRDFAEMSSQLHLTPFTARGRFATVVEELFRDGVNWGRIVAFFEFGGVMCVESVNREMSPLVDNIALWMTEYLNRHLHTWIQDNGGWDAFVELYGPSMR

Structure (SMILES): CC1(C)CCC(CN2CCN(c3ccc(C(=O)NS(=O)(=O)c4cc([N+](=O)[O-])c(NCC5CCOCC5)c5[nH]ccc45)c(Oc4cnc5[nH]ccc5c4)c3)CC2)=C(c2ccc(Cl)cc2)C1 [Compound 1]
- IC50 (RS4;11 cells): 1.4 nM

Structure (SMILES): CC1(C)CCC(CN2CC=C(c3ccc(C(=O)NS(=O)(=O)c4cc([N+](=O)[O-])c(NCC5CCOCC5)c5[nH]cnc45)c(Oc4ccc5[nH]ccc5c4)c3)CC2)=C(c2ccc(Cl)cc2)C1 [Compound 5]
- IC50 (RS4;11 cells): 10.2 nM
- IC50 (Bcl-xL): 504 nM
- IC50 (Bcl-2): 2.6 nM

Structure (SMILES): Cn1cnc2c(NCC3CCOCC3)c([N+](=O)[O-])cc(S(=O)(=O)NC(=O)c3ccc(N4CCN(CC5=C(c6ccc(Cl)cc6)CC(C)(C)CC5)CC4)cc3Oc3cnc4[nH]ccc4c3)c21 [Compound 6]
- IC50 (RS4;11 cells): 4.6 nM
- IC50 (Bcl-xL): 173 nM
- IC50 (Bcl-2): 2.4 nM

Structure (SMILES): CC1(C)CCC(CN2CCN(c3ccc(C(=O)NS(=O)(=O)c4cc([N+](=O)[O-])c(NCC5COCCO5)c5[nH]cnc45)c(Oc4cnc5[nH]ccc5c4)c3)CC2)=C(c2ccc(Cl)cc2)C1 (centres unmarked) [Compound 7]
- IC50 (RS4;11 cells): 6.8 nM

Structure (SMILES): Cn1cnc2c(S(=O)(=O)NC(=O)c3ccc(N4CCN(CC5=C(c6ccc(Cl)cc6)CC(C)(C)CC5)CC4)cc3Oc3cnc4[nH]ccc4c3)cc([N+](=O)[O-])c(NCC3CCOCC3)c21 [Compound 8]
- IC50 (RS4;11 cells): 6.5 nM
- IC50 (Bcl-xL): 1110 nM
- IC50 (Bcl-2): 1.3 nM

Structure (SMILES): Cc1nc2c(S(=O)(=O)NC(=O)c3ccc(N4CCN(CC5=C(c6ccc(Cl)cc6)CC(C)(C)CC5)CC4)cc3Oc3cnc4[nH]ccc4c3)cc([N+](=O)[O-])c(NCC3CCOCC3)c2[nH]1 [Compound 9]
- IC50 (RS4;11 cells): 1.9 nM
- IC50 (Bcl-xL): 326 nM
- IC50 (Bcl-2): 3.6 nM

Structure (SMILES): O=C(O)Cc1ccccc1Nc1c(Cl)cccc1Cl [Diclofenac]
- half-life at 1 µM [1]: 63.5 min
- Remaining (T = 60 min) [1]: 53.0%
- Remaining (T = 60 min) [2]: 0.0%
- CLint scaled at 1 µM [3]: < 13.8 mL/min/kg
- half-life at 1 µM [3]: > 145 min
- Remaining (T = 60 min) [3]: 101%
- CLint scaled at 1 µM [4]: 174 mL/min/kg
- T1/2 [4]: 14.4 min
- Remaining (T = 60 min) [4]: 5.2%

Structure (SMILES): C[C@]12CC[C@H]3[C@@H](CCC4=CC(=O)CC[C@@]43C)[C@@H]1CC[C@@H]2O [Testosterone]
- CLint scaled at 1 µM [1]: 1370 mL/min/kg
- T1/2 [1]: 4.0 min
- Remaining (T = 60 min) [1]: 0.0%
- Remaining (T = 60 min) [2]: 5.7%
- CLint scaled at 1 µM ([2]; human): 155 mL/min/kg
- half-life at 1 µM ([2]; human): 8.9 min
- CLint scaled at 1 µM [3]: 81 mL/min/kg
- T1/2 [3]: 24.6 min
- Remaining (T = 60 min) [3]: 19%
- CLint scaled at 1 µM [4]: 2180 mL/min/kg
- T1/2 [4]: 1.1 min
- Remaining (T = 60 min) [4]: 0.0%
